Test results as given in US20240360178A1, “MACROCYCLIC IMMUNOMODULATORS” (Bristol-Myers Squibb Company, priority 2021, published 2024).
Positions of bridges follow the written chain, without caps; N, C: chain ends. Non-standard residues stand in square brackets, D forms with d. Residues, ends and D or L forms follow the SMILES beside them. *: point of attachment. Bip = N[C@@H](Cc1ccc(-c2ccccc2)cc1)C(=O)O; Phe(3-Cl) = N[C@@H](Cc1cccc(Cl)c1)C(=O)O; 1Nal = N[C@@H](Cc1cccc2ccccc12)C(=O)O; NMeF = CN[C@@H](Cc1ccccc1)C(=O)O; hArg = N=C(N)NCCCC[C@H](N)C(=O)O; Cha = N[C@@H](CC1CCCCC1)C(=O)O; Cit = NC(=O)NCCC[C@H](N)C(=O)O; Carboxymethyl = O=C(O)C*; NMeA = CN[C@@H](C)C(=O)O; Orn = NCCC[C@H](N)C(=O)O; Dap = NC[C@H](N)C(=O)O

The compounds below were run against T1, human PD-1 (Jurkat-PD-1 cells) / PE-labeled human PD-L1-Ig (Homo sapiens, UniProt Q15116) (assay: Jurkat-PD-1 Cell Binding High-Content Screening Assay (CBA); Jurkat hPD1-PDL1 assay). Conditions: Jurkat cell line over-expressing human PD-1; PE-labeled PD-L1-Ig 20 nM final; compound incubated 2 hours at 37° C.; read-out: Jurkat HPD1-PDL1 IC50.
T1 construct: expressed in transfected cells; host or cells: Jurkat cell line over-expressing human PD-1
T1 sequence (Q15116 25-288): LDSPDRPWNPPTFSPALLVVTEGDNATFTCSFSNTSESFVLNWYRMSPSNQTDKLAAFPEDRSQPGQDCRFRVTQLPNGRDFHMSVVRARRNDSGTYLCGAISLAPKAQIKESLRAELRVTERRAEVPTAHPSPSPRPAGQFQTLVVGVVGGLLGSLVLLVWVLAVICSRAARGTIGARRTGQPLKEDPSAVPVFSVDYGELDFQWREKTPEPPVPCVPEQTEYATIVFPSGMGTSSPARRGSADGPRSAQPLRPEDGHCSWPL
Outline: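 Binding of phycoerythrin-conjugated PD-L1-Ig (20 nM final) to PD-1-overexpressing Jurkat cells was read by high-content imaging. Cells in DMEM/10% FCS were exposed to compound for 2 hours at 37° C before labeled ligand was added.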

IC50 | Compound
170 nM | CC(C)C[C@@H]1NC(=O)[C@H](CCCNC(=N)N)NC(=O)[C@H](Cc2ccccc2)N(C)C(=O)[C@H](C)N(C)C(=O)[C@H](CCCNC(=N)N)NC(=O)[C@H](Cc2ccc(-c3ccccc3)cc2)NC(=O)[C@H](C(C)C)NC(=O)[C@H](Cc2c[nH]c3ccccc23)NC(=O)[C@H](CC(=O)O)NC(=O)[C@H](Cc2ccccc2)NC(=O)[C@H](Cc2ccccc2)NC(=O)CSC[C@@H](C(=O)NCC(N)=O)NC(=O)[C@H](CO)NC(=O)[C@H](C(C)C)NC1=O [Example 1238] ({CH2CO}-FFDWV[Bip]R[NMeA][NMeF]RLVSCG-NH2; thioether N-14)
110 nM | CC(C)C[C@@H]1NC(=O)[C@H](C(C)C)NC(=O)[C@H](Cc2ccccc2)N(C)C(=O)[C@H](C)N(C)C(=O)[C@H](CCCNC(=N)N)NC(=O)[C@H](Cc2ccc(-c3ccccc3)cc2)NC(=O)[C@H](C(C)C)NC(=O)[C@H](Cc2c[nH]c3ccccc23)NC(=O)[C@H](CC(=O)O)NC(=O)[C@H](Cc2ccc(O)cc2)NC(=O)[C@H](Cc2ccccc2)NC(=O)CSC[C@@H](C(=O)NCC(N)=O)NC(=O)[C@H](CO)NC(=O)[C@H](C(C)C)NC1=O [Example 1239] ({CH2CO}-FYDWV[Bip]R[NMeA][NMeF]VLVSCG-NH2; thioether N-14)
170 nM | CC(C)C[C@@H]1NC(=O)[C@H](CCCNC(=N)N)NC(=O)[C@H](Cc2ccccc2)N(C)C(=O)[C@H](C)N(C)C(=O)[C@H](CCCNC(=N)N)NC(=O)[C@H](Cc2ccc(-c3ccccc3)cc2)NC(=O)[C@H](C(C)C)NC(=O)[C@H](Cc2cccc3ccccc23)NC(=O)[C@H](CC(=O)O)NC(=O)[C@H](Cc2ccc(O)cc2)NC(=O)[C@H](Cc2ccccc2)NC(=O)CSC[C@@H](C(=O)NCC(N)=O)NC(=O)[C@H](CO)NC(=O)[C@H](C(C)C)NC1=O [Example 1240] ({CH2CO}-FYD[1Nal]V[Bip]R[NMeA][NMeF]RLVSCG-NH2; thioether N-14)
270 nM | CC(C)C[C@@H]1NC(=O)[C@H](CCCNC(=N)N)NC(=O)[C@H](Cc2ccccc2)N(C)C(=O)[C@H](C)N(C)C(=O)[C@H](CCCNC(=N)N)NC(=O)[C@H](Cc2ccc(-c3ccccc3)cc2)NC(=O)[C@H](C(C)C)NC(=O)[C@H](Cc2cccc(Cl)c2)NC(=O)[C@H](CC(=O)O)NC(=O)[C@H](Cc2ccc(O)cc2)NC(=O)[C@H](Cc2ccccc2)NC(=O)CSC[C@@H](C(=O)NCC(N)=O)NC(=O)[C@H](CO)NC(=O)[C@H](C(C)C)NC1=O [Example 1241] ({CH2CO}-FYD[Phe(3-Cl)]V[Bip]R[NMeA][NMeF]RLVSCG-NH2; thioether N-14)
240 nM | CC(C)C[C@@H]1NC(=O)[C@H](CCCNC(=N)N)NC(=O)[C@H](Cc2ccccc2)N(C)C(=O)[C@H](C)N(C)C(=O)[C@H](CN)NC(=O)[C@H](Cc2ccc(-c3ccccc3)cc2)NC(=O)[C@H](C(C)C)NC(=O)[C@H](Cc2c[nH]c3ccccc23)NC(=O)[C@H](CC(=O)O)NC(=O)[C@H](Cc2ccc(O)cc2)NC(=O)[C@H](Cc2ccccc2)NC(=O)CSC[C@@H](C(=O)NCC(N)=O)NC(=O)[C@H](CO)NC(=O)[C@H](C(C)C)NC1=O [Example 1242] ({CH2CO}-FYDWV[Bip][Dap][NMeA][NMeF]RLVSCG-NH2; thioether N-14)
60 nM | CC(C)C[C@@H]1NC(=O)[C@H](CCCNC(=N)N)NC(=O)[C@H](Cc2ccccc2)N(C)C(=O)[C@H](C)N(C)C(=O)[C@H](CCCN)NC(=O)[C@H](Cc2ccc(-c3ccccc3)cc2)NC(=O)[C@H](C(C)C)NC(=O)[C@H](Cc2c[nH]c3ccccc23)NC(=O)[C@H](CC(=O)O)NC(=O)[C@H](Cc2ccc(O)cc2)NC(=O)[C@H](Cc2ccccc2)NC(=O)CSC[C@@H](C(=O)NCC(N)=O)NC(=O)[C@H](CO)NC(=O)[C@H](C(C)C)NC1=O [Example 1243] ({CH2CO}-FYDWV[Bip][Orn][NMeA][NMeF]RLVSCG-NH2; thioether N-14)
190 nM | CC(C)C[C@@H]1NC(=O)[C@H](CCCNC(=N)N)NC(=O)[C@H](Cc2ccccc2)N(C)C(=O)[C@H](C)N(C)C(=O)[C@H](CCCCNC(=N)N)NC(=O)[C@H](Cc2ccc(-c3ccccc3)cc2)NC(=O)[C@H](C(C)C)NC(=O)[C@H](Cc2c[nH]c3ccccc23)NC(=O)[C@H](CC(=O)O)NC(=O)[C@H](Cc2ccc(O)cc2)NC(=O)[C@H](Cc2ccccc2)NC(=O)CSC[C@@H](C(=O)NCC(N)=O)NC(=O)[C@H](CO)NC(=O)[C@H](C(C)C)NC1=O [Example 1244] ({CH2CO}-FYDWV[Bip][hArg][NMeA][NMeF]RLVSCG-NH2; thioether N-14)
110 nM | CC(C)C[C@@H]1NC(=O)[C@H](CCCNC(=N)N)NC(=O)[C@H](Cc2ccccc2)N(C)C(=O)[C@H](C)N(C)C(=O)[C@H](CCCNC(N)=O)NC(=O)[C@H](Cc2ccc(-c3ccccc3)cc2)NC(=O)[C@H](C(C)C)NC(=O)[C@H](Cc2c[nH]c3ccccc23)NC(=O)[C@H](CC(=O)O)NC(=O)[C@H](Cc2ccc(O)cc2)NC(=O)[C@H](Cc2ccccc2)NC(=O)CSC[C@@H](C(=O)NCC(N)=O)NC(=O)[C@H](CO)NC(=O)[C@H](C(C)C)NC1=O [Example 1245] ({CH2CO}-FYDWV[Bip][Cit][NMeA][NMeF]RLVSCG-NH2; thioether N-14)
250 nM | CC(C)C[C@@H]1NC(=O)[C@H](CCCNC(=N)N)NC(=O)[C@H](Cc2ccccc2)N(C)C(=O)[C@H](C)N(C)C(=O)[C@H](CCCNC(=N)N)NC(=O)[C@H](Cc2ccc(-c3ccccc3)cc2)NC(=O)[C@H](C(C)C)NC(=O)[C@H](Cc2c[nH]c3ccccc23)NC(=O)[C@H](CC(=O)O)NC(=O)[C@H](Cc2ccc(O)cc2)NC(=O)[C@H](Cc2ccc(OCC(=O)O)cc2)NC(=O)CSC[C@@H](C(=O)NCC(N)=O)NC(=O)[C@H](CO)NC(=O)[C@H](C(C)C)NC1=O [Example 1246] ({CH2CO}-Y(Carboxymethyl)YDWV[Bip]R[NMeA][NMeF]RLVSCG-NH2; thioether N-14)
230 nM | COc1ccc(C[C@@H]2NC(=O)CSC[C@@H](C(=O)NCC(N)=O)NC(=O)[C@H](CO)NC(=O)[C@H](C(C)C)NC(=O)[C@H](CC(C)C)NC(=O)[C@H](CCCNC(=N)N)NC(=O)[C@H](Cc3ccccc3)N(C)C(=O)[C@H](C)N(C)C(=O)[C@H](CCCNC(=N)N)NC(=O)[C@H](Cc3ccc(-c4ccccc4)cc3)NC(=O)[C@H](C(C)C)NC(=O)[C@H](Cc3c[nH]c4ccccc34)NC(=O)[C@H](CC(=O)O)NC(=O)[C@H](Cc3ccc(O)cc3)NC2=O)cc1 [Example 1247] ({CH2CO}-Y(Me)YDWV[Bip]R[NMeA][NMeF]RLVSCG-NH2; thioether N-14)
360 nM | CC(C)C[C@@H]1NC(=O)[C@H](CCCNC(=N)N)NC(=O)[C@H](Cc2ccccc2)N(C)C(=O)[C@H](C)N(C)C(=O)[C@H](CCCNC(=N)N)NC(=O)[C@H](Cc2ccc(-c3ccccc3)cc2)NC(=O)[C@H](C(C)C)NC(=O)[C@H](Cc2c[nH]c3ccccc23)NC(=O)[C@H](CC(=O)O)NC(=O)[C@H](Cc2ccc(O)cc2)NC(=O)[C@H](CC2CCCCC2)NC(=O)CSC[C@@H](C(=O)NCC(N)=O)NC(=O)[C@H](CO)NC(=O)[C@H](C(C)C)NC1=O [Example 1248] ({CH2CO}-[Cha]YDWV[Bip]R[NMeA][NMeF]RLVSCG-NH2; thioether N-14)
270 nM | CC(C)C[C@@H]1NC(=O)[C@H](CCCNC(=N)N)NC(=O)[C@H](Cc2ccccc2)N(C)C(=O)[C@H](C)N(C)C(=O)[C@H](CCCNC(=N)N)NC(=O)[C@H](Cc2ccc(-c3ccccc3)cc2)NC(=O)[C@H](C(C)C)NC(=O)[C@H](Cc2c[nH]c3ccccc23)NC(=O)[C@H](CC(=O)O)NC(=O)[C@H](Cc2cnc[nH]2)NC(=O)[C@H](Cc2ccccc2)NC(=O)CSC[C@@H](C(=O)NCC(N)=O)NC(=O)[C@H](CO)NC(=O)[C@H](C(C)C)NC1=O [Example 1249] ({CH2CO}-FHDWV[Bip]R[NMeA][NMeF]RLVSCG-NH2; thioether N-14)
